Laboratory results reported in EP0103381B1, “Substituted anthra(1,9-cd)pyrazol-6(2H)-ones” (WARNER-LAMBERT COMPANY, priority 1982, dated 1984).

Tests used:
[1] = tested on: lymphocytic leukemia P388; experiment: in vivo lymphocytic leukemia P388 test; set-up: species or system mice; settings: Mus musculus, P388, ip, 720 h, two single doses four days apart, read-out: T/C × 100 (Percent); for response vs control in vivo at 6.25 mg/kg: P388, Dose 6.25 mg/kg intraperitoneally; for response vs control in vivo at 12.5 mg/kg: P388, Dose 12.5 mg/kg intraperitoneally; for response vs control in vivo at 25 mg/kg: P388, Dose 25 mg/kg intraperitoneally; for response vs control in vivo at 50 mg/kg: P388, Dose 50 mg/kg intraperitoneally; for response vs control in vivo at 0.78 mg/kg: P388, Dose 0.78 mg/kg intraperitoneally; for response vs control in vivo at 1.56 mg/kg: P388, Dose 1.56 mg/kg intraperitoneally; for response vs control in vivo at 0.39 mg/kg: P388, Dose 0.39 mg/kg intraperitoneally; for response vs control in vivo at 3.12 mg/kg: P388, Dose 3.12 mg/kg intraperitoneally
Method: The in vivo lymphocytic leukemia P388 test is carried out by the United States National Cancer Institute. The animals used are either male or female CD2F, mice. There are six to seven animals per test group. The tumor transplant is by intraperitoneal injection of dilute ascitic fluid containing cells of lymphocytic leukemia P388. The test compounds are administered intraperitoneally in two single doses with a four-day interval between doses at various dose levels following tumor inoculation. The animals are weighed and survivors are recorded on a regular basis for 30 days. A ratio of survival time for treated (T)/ control (C) animals is calculated. The criterion for efficacy is T/C x 100 > 125%. The positive control compound in this test is 1,4-dihydroxy-5,8-[bis[[2-[(2-hydroxyethyl)amino]-ethyl]amino]-9,10-anthracene- dione given at dosages ranging from 12.0 to 0.075 mg/kg. See Cancer Chemotherapy Reports, Part 3, 3, 1 (1972) for a comprehensive discussion of the protocol.

Penicillium avellaneum = experiment: agar plate paper-disc inhibition zone screening; type: cell-based; settings: Hamigera avellanea; Dose 3.0 mg/ml; read-out: Inhibition Zone Diameter mm (Dose mg/ml) P. Avellaneum
In short: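 Mycelia and spores from a six-day 28°C agar culture, suspended in saline with 0.05% Tween 80 at 20% transmittancy, were seeded into molten agar trays. Compounds at 3,000, 1,000, 500, 100 and 10 mcg/ml (solvent <10%) were applied on 12.7 mm paper discs. After at least 20-24 h incubation, inhibition zone diameter was measured in mm.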

Escherichia coli = experiment: agar plate paper-disc inhibition zone screening; type: cell-based; settings: read-out: Inhibition Zone Diameter mm (Dose mg/ml) E. Coli; for zone of inhibition at 3000 µg/mL: Dose 3.0 mg/ml; for zone of inhibition at 500 µg/mL: Dose 0.5 mg/ml; for zone of inhibition at 1000 µg/mL: Dose 1.0 mg/ml
In short: (§1)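 Read-out: diameter (mm) of the inhibition zone around 12.7 mm paper discs after overnight (18-20 h) incubation at 37°C. Discs carried compound at 3,000-10 mcg/ml in alcohol, DMSO or DMF, final solvent <10%. Seeded agar trays used saline-suspended cells adjusted to 20-35% transmittancy.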

Aerobacter aerogenes = experiment: agar plate paper-disc inhibition zone screening; type: cell-based; settings: Klebsiella aerogenes, read-out: Inhibition Zone Diameter mm (Dose mg/ml) A. Aerogenes; for zone of inhibition at 500 µg/mL: Dose 0.5 mg/ml; for zone of inhibition at 3000 µg/mL: Dose 3.0 mg/ml
In short: as §1

Streptococcus faecalis = experiment: agar plate paper-disc inhibition zone screening; type: cell-based; settings: Enterococcus faecalis, read-out: Inhibition Zone Diameter mm (Dose mg/ml) S. Faecalis; for zone of inhibition at 3000 µg/mL: Dose 3.0 mg/ml; for zone of inhibition at 1000 µg/mL: Dose 1.0 mg/ml
In short: as §1

Bacillus subtilis = experiment: agar plate paper-disc inhibition zone screening; type: cell-based; settings: read-out: Inhibition Zone Diameter mm (Dose mg/ml) B. Subtilis; for zone of inhibition at 1000 µg/mL: Dose 1.0 mg/ml; for zone of inhibition at 3000 µg/mL: Dose 3.0 mg/ml
In short: as §1

Compound	response vs control in vivo at 6.25 mg/kg [1] [%]	response vs control in vivo at 12.5 mg/kg [1] [%]	response vs control in vivo at 25 mg/kg [1] [%]	response vs control in vivo at 50 mg/kg [1] [%]	zone of inhibition at 3000 µg/mL (Penicillium avellaneum) [mm]	zone of inhibition at 3000 µg/mL (Escherichia coli) [mm]	zone of inhibition at 3000 µg/mL (Streptococcus faecalis) [mm]	zone of inhibition at 500 µg/mL (Aerobacter aerogenes) [mm]	zone of inhibition at 3000 µg/mL (Bacillus subtilis) [mm]	response vs control in vivo at 0.78 mg/kg [1] [%]	response vs control in vivo at 1.56 mg/kg [1] [%]	zone of inhibition at 500 µg/mL (Escherichia coli) [mm]	zone of inhibition at 3000 µg/mL (Aerobacter aerogenes) [mm]	response vs control in vivo at 3.12 mg/kg [1] [%]	further results
NCCNc1ccc2c3c(nn2CCO)-c2c(O)ccc(O)c2C(=O)c13 [Example 37, 5-[(2-Aminoethyl)amino]-7,10-dihydroxy-2-(2-hydroxyethyl)anthra[1,9-cd]pyrazol-6(2H)-one]	135	145	146	162	0	0	0								zone of inhibition at 1000 µg/mL (Aerobacter aerogenes; Dose 1.0 mg/ml): 15 mm; zone of inhibition at 1000 µg/mL (Bacillus subtilis): 15 mm
CN(C)CCNc1ccc2c3c(nn2CCO)-c2c(O)ccc(O)c2C(=O)c13 [Example 39]		124	153	180	0	0	14	15	0						response vs control in vivo at 100 mg/kg ([1]; P388, Dose 100 mg/kg intraperitoneally): 225%
CCN(CC)CC(O)Cn1nc2c3c(c(NCCNCCO)ccc31)C(=O)c1c(O)ccc(O)c1-2 (centres unmarked) [Example 43, 2-[3-(Diethylamino)-2-hydroxypropyl]-7,10-dihydroxy-5-[[2-[(2-hydroxyethyl)amino]ethyl]amino]-anthra[1,9-cd]pyrazol-6(2H)-one]					0		15	16	14	132	139	16			
CCN(CC)CCNc1ccc2c3c(nn2CC(O)CN(CC)CC)-c2c(O)ccc(O)c2C(=O)c13 (centres unmarked) [Example 44]		128	131	131	0		14		15			15	14		
CCN(CC)CC(O)Cn1nc2c3c(c(NCCN)ccc31)C(=O)c1c(O)ccc(O)c1-2 (centres unmarked) [Example 45, 5-[(2-Aminoethyl)amino]-2-[3-(diethylamino)-2-hydroxypropyl]-7,10-dihydroxyanthra[1,9-cd]pyrazol-6(2H)-one]					0		0	15	14		157	15			response vs control in vivo at 0.39 mg/kg [1]: 135%
CN(C)CCCn1nc2c3c(c(NCCCN)ccc31)C(=O)c1c(O)ccc(O)c1-2 [Example 47, 5-[(3-Aminopropyl)amino]-2-[3-(dimethylamino)propyl]-7,10-dihydroxyanthra[1,9-cd]pyrazol-6(2H)-one]		173	194		0	14	0		14				14		
O=C1c2c(O)ccc(O)c2-c2nn(CCNCCO)c3ccc(NCCNCCO)c1c23 [Example 54, 7,10-Dihydroxy-2-[2-[12-hydroxyethyl)amino]ethyl]-5-[[2-[(2-hydroxyethyl)amino]ethyl]amino]anthra[1,9-cdlpyrazol-6(2H)-one]	206		158	139	0		0		14		158		15	187	zone of inhibition at 1000 µg/mL (Escherichia coli): 14 mm
NCCNc1ccc2c3c(nn2CCNCCO)-c2c(O)ccc(O)c2C(=O)c13 [Example 55, 5-[(2-Aminoethyl)amino]-7,10-dihydroxy-2-[2-[(2-hydroxyethyl)amino]ethyl]anthra[1,9-cd]pyrazol-6(2H)-one]					0		0		14	182	173		15		response vs control in vivo at 0.39 mg/kg [1]: 175%; zone of inhibition at 1000 µg/mL (Escherichia coli): 14 mm
CN(C)CCNc1ccc2c3c(nn2CCNCCO)-c2c(O)ccc(O)c2C(=O)c13 [Example 56, 5-[[2-(Dimethylamino)ethyl]amino]-7,10-dihydroxy-2-[2-[(2-hydroxyethyl)amino]ethyl]anthra[1,9-cd]pyrazol-6(2H)-one]	165		88		0			14		152	161	14		165	zone of inhibition at 1000 µg/mL (Streptococcus faecalis): 14 mm; zone of inhibition at 1000 µg/mL (Bacillus subtilis): 14 mm
CCN(CC)CCNc1ccc2c3c(nn2CCNCCO)-c2c(O)ccc(O)c2C(=O)c13 [Example 57, 5-[[2-(Diethylamino)ethyl]amino]-7,10-dihydroxy-2-[2-[(2-hydroxyethyl)amino]ethyl]anthra[1,9-cd]pyrazol-6(2H)-one]	154	177	190	241	14			14			131	14		148	zone of inhibition at 1000 µg/mL (Streptococcus faecalis): 14 mm; zone of inhibition at 500 µg/mL (Bacillus subtilis; Dose 0.5 mg/ml): 15 mm
